# B1: BDNF: Brain-derived neurotrophic factor, positive (neuroprotective) control (protein, UniProt P23560 19-247, looked up)
# Neurotrophic factor BDNF …: APMKEANIRGQGGLAYPGVRTHGTLESVNGPKAGSRGLTSLADTFEHVIEELLDEDQKVRPNEENNKDADLYTSRVMLSSQVPLEPPLLFLLEEYKNYLDAANMSMRVRRHSDPARRGELSVCDSISEWVTAADKKTAVDMSGGTVTVLEKVPVSKGQLKQYFYETKCNPMGYTKEGCRGIDKRHWNSQCRTTQSYVRALTMDSKKRIGWRFIRIDTSCVCTLTIKRGR
# How the values were obtained:
# [1] = test system: rat primary cortical neuron culture; assay: LDH release in Aβ25-35 intoxicated rat primary cortical neuron culture; assay type: cell-based; settings: Aβ25-35 20 μM, 2 days; drug pre-incubated 1 h; FIG. 2
# Description: Primary rat cortical neurons are cultured as described by Singer et al., 1999. Briefly pregnant female rats of 15 days gestation are killed by cervical dislocation (Rats Wistar; Janvier) and the foetuses removed from the uterus. The cortex are removed and placed in ice-cold medium of Leibovitz (L15; Invitrogen) containing 1% of Penicillin-Streptomycin (PS; Invitrogen) and 1% of bovine serum albumin (BSA; Sigma). Cortex are dissociated by trypsinisation for 20 min at 37° C. (Trypsin EDTA 1×; Invitrogen) diluted in PBS without calcium and magnesium. The reaction is stopped by the addition of Dulbecco's modified Eagle's medium (DMEM; Invitrogen) containing DNAase I grade II (0.1 mg/ml; Roche Diagnostic) and 10% of foetal calf serum (FCS; Invitrogen). Cells are then mechanically dissociated by 3 passages through a 10 ml pipette. Cells are then centrifuged at 180×g for 10 min at 10° C. The supernatant is discarded and the cells of pellet are re-suspended in a defined culture medium consisting of Neurobasal (Invitrogen) supplemented with B27 (2%; Invitrogen), L-glutamine (0.2 mM; Invitrogen), 1% of PS solution and 10 ng/ml of Brain-derived neurotrophic factor (BDNF, Pan Biotech). Viable cells are counted in a Neubauer cytometer using the trypan blue exclusion test. Cells are seeded at a density of 30 000 cells/well in 96 well-plates (wells are pre-coated with poly-L-lysine (10 ng/ml; Sigma)) and are cultured at 37° C. in a humidified air (95%)/CO2 (5%) atmosphere.
# After 6 days of culture, cells are incubated with drugs (5 concentrations). After 1 hour, cells are intoxicated by 20 μM of β-amyloid (25-35; Sigma) in defined medium without BDNF but together with drugs. Cortical neurons are intoxicated for 2 days. BDNF (10 ng/ml) is used as a positive (neuroprotective) control.
# After 2 days of culture, the supernatant is collected and analyzed with Cytotoxicity Detection Kit (LDH, Roche Applied Sciences). This colorimetric assay for the quantification of cell death is based on the measurement of lactate dehydrogenase (LDH) activity released from the cytosol of damaged cells into the supernatant. The optic density (DO) is assessed by spectrophotometer at 492 nm wavelength by a multiscan apparatus (Thermo, Ref Ascent). Results are expressed in percentage of cell viability, compared to the negative control (vehicle).
# Results presented in FIGS. 1 and 2 are extracted from two independent cultures, 6 wells per condition. All values are expressed as mean±s.e.mean. A bilateral Student's t test analysis is performed on raw data. […]
# Rat primary cortical neurons are incubated with drugs one hour before Aβ25-35 20 μM intoxication that lasts 2 days. Two days after this incubation, LDH release in the culture medium is quantified, reflecting the level of cell death.
# [2] = test system: Human Brain Microvascular Endothelial Cells (HBMEC); assay: Capillary network length in human Aβ1-42 intoxicated HBMEC on matrigel; assay type: cell-based; settings: for Effect on intoxication, total length of capillary network in beta-amyloid intoxicated HBMEC cultures: Aβ1-42 2.5 μM, combination versus each drug alone at the same concentrations, FIGS. 5 and 6
# Description: Human brain microvascular endothelial cerebral cells (HBMEC, ScienCell Ref: 1000, frozen at passage 10) were rapidly thawed in a waterbath at +37° C. The supernatant was immediately put in 9 ml Dulbecco's modified Eagle's medium (DMEM; Pan Biotech ref: P04-03600) containing 10% of foetal calf serum (FCS; GIBCO ref 10270-106). Cell suspension was centrifuged at 180×g for 10 min at +4° C. and the pellets were suspended in CSC serum-free medium (CSC serum free, Cell System, Ref: SF-4Z0-500-R, Batch 51407-4) with 1.6% of Serum free RocketFuel (Cell System, Ref: SF-4Z0-500-R, Batch 54102), 2% of Penicillin 10.000 U/ml and Streptomycin 10 mg/ml (PS; Pan Biotech ref: P06-07100 batch 133080808) and were seeded at the density of 20 000 cells per well in 96 well-plates (matrigel layer biocoat angiogenesis system, BD, Ref 354150, Batch A8662) in a final volume of 100 μl. On matrigel support, endothelial cerebral cells spontaneously started the process of capillary network morphogenesis (54).
# Three separate cultures were performed per condition, 6 wells per condition.
# Briefly, Aβ1-42 peptide (Bachem, ref: H1368 batch 1010533) was reconstituted in define culture medium at 20 μM (mother solution) and was slowly shacked at +37° C. for 3 days in. The control medium was prepared in the same conditions.
# After 3 days, this human amyloid peptide was used on HBMEC at 2.5 μM diluted in control medium (optimal incubation time). The Aβ1-42 peptide was added 2 hours after HBMEC seeding on matrigel for 18 hours incubation.
# One hour after HBMEC seeding on matrigel, test compounds and VEGF-165 were solved in culture medium (+0.1% DMSO) and then pre-incubated with HBMEC for 1 hour before the Aβ1-42 application (in a final volume per culture well of 100 μl).
# VEGF-165, known to be a pro-angiogenic isoform of VEGF-A, was used for all experiments in this study as reference compound.
# The following conditions were assessed: • Negative Control: medium alone+0.1% DMSO • Intoxication: amyloid-β1-42 (2.5 μM) for 18 h • Positive control: VEGF-165 (10 nM) (1 reference compound/culture) 1 hr before the Aβ1-42 (2.5 μM) addition for a 18 h incubation time. • Test compounds: Test compound I hr before the Aβ1-42 (2.5 μM) addition for a 18 h incubation time. Capillary Network Quantification
# Per well, 2 pictures with 4× lens were taken using InCell Analyzer™ 1000 (GE Healthcare) in light transmission. All images were taken in the same conditions. Analysis of the angiogenesis networks was done using Developer software (GE Healthcare). The total length of capillary network was assessed.
# All values are expressed as mean±s.e.mean of the 3 cultures (n=6 per condition). […] Indeed, the amyloid toxicity was taken as the 100% and the test compound effect was calculated as a % of this amyloid toxicity. […]
# NGF-differentiated PC12 = assay: MTT viability of NGF-differentiated PC12 cells after Abeta25-35 intoxication; assay type: cell-based, Rat; settings: Abeta25-35 10 μM, 24 h; drug pre-incubated 1 h; FIG. 1
# Description: PC12 (Pheochromocytoma Rat, ATCC ref: CRL-1721) cells from [NT] CRL-1721) were rapidly thawed in 37° C. water. The supernatant was immediately put in 9 ml of a “PC12 proliferation medium” containing Dulbecco's modified Eagle's medium DMEM-F12 (Pan Biotech ref: P04-41450) with 15% heat-inactivated horse serum (Invitrogen ref: 16050-130), 2.5% of fetal bovine serum (FBS; Invitrogen ref: 16000-036), 1% of Penicillin 10.000 U/ml and Streptomycin 10 mg/ml (PS; Pan Biotech ref: P06-07100) and 1% de L-glutamine 200 mM (Pan Biotech ref: P04-80100). Cells were centrifuged (800 rounds/min, 4° C. for 5 min) and added in 5 ml “PC12 proliferation medium”, viable cells were counted with a Malassez cell using the neutral red exclusion test (Sigma). Then the cells were seeded at 3·10^4 cells per cm^2 in “PC12 proliferation medium” in 75 cm^2 plastic flasks (Greiner Ref: 658175) precoated with poly-L-lysine (10 μg/ml, Sigma Ref: P2636). Medium was changed every other day. After 3 days of culture, when cells reached 80% of confluence, they were washed in HBSS without calcium and magnesium (Pan Biotech Ref: P06-33500) and incubated in trypsin EDTA, (0.05%, Pan Biotech Ref: P10-023100). The enzymatic reaction was stopped with PC12 proliferation medium added by 0.5 mg/ml of DNAse 1 grade 2 (Pan Biotech Ref: T60-37780100). […]
# [3] = test system: rat primary cortical neuron cells; assay: LDH release in human Aβ1-42 intoxicated rat primary cortical neuron culture; assay type: cell-based; settings: human Aβ1-42 10 μM, 24 h; 1 hr pre-treatment; FIG. 4
# Description: Primary rat cortical neurons are cultured as described previously.
# The control medium was prepared in the same conditions.
# Cortical neurons were intoxicated for 24 hours. Three separate cultures were performed per condition, 6 wells per condition.
# This colorimetric assay for the quantification of cell toxicity is based on the measurement of lactate dehydrogenase (LDH) activity released from the cytosol of dying cells into the supernatant.
# All values are expressed as mean±s.e.mean of the 3 cultures (n=6 per condition).
Molecule,"Prevention of Aβ25-35 intoxication, LDH release in rat primary cortical neurons [1]","Effect on intoxication, total length of capillary network in beta-amyloid intoxicated HBMEC cultures [2]",other results
Cc1oncc1C(=O)Nc1ccc(C(F)(F)F)cc1 [Leflunomide],significantly prevented,,
C[C@@H]1CC(=O)NN=C1c1ccc(NN=C(C#N)C#N)cc1 [Levosimendan],,no significant effect,
"CCCNC(C)C(=O)Nc1ccccc1C (centres unmarked) [Prilocaln, Prilocaine]",,,"Prevention of Abeta25-35 intoxication, viability of NGF-differentiated PC12 (MTT) (NGF-differentiated PC12): significantly prevented"
Cc1noc(NS(=O)(=O)c2ccc(N)cc2)c1C [Sulfisoxazole],significantly prevented,no significant effect,"Prevention of human Aβ1-42 injury in HBMEC (capillary network), single drug ([2]; human Aβ1-42 2.5 μM, 18 h, 1 hr pre-treatment, FIG. 3B): significantly prevented"
CN1CC(=O)N2[C@H](c3ccc4c(c3)OCO4)c3[nH]c4ccccc4c3C[C@@H]2C1=O [Tadalafil],,,LDH release compared to amyloid intoxication [3]: −57%
CN(C/C=C/C#CC(C)(C)C)Cc1cccc2ccccc12 [Terbinafine],,no significant effect,
NS(=O)(=O)Cc1noc2ccccc12 [Zonisamide],significantly prevented,,
B1,efficiently prevented,,LDH release compared to amyloid intoxication [3]: −95%

# From patent US8552041B2, “Therapeutic approaches for treating alzheimer disease and related disorders through a modulation of cell stress response” (Pharnext, priority 2008, dated 2013)
